Tests used:
MT-4 cells = experiment: Test B: Cytotoxicity Assay (protocol of Test A, uninfected cells); type: cell-based; details: uninfected MT-4 cells, 5 days, CellTiter-Glo
Experimental: (§1) Test B: Cytotoxicity Assay Compound cytotoxicity and the corresponding CC50 values was determined using the same protocol as described in the antiviral assay (Test A) except that uninfected cells were used.

HIV-IIIb = experiment: Test A: Antiviral Assay in MT4 Cells; type: cell-based, HIV-1; details: Human immunodeficiency virus 1, IIIB, MT4, 120 h, read-out: % inhibition at 3 μM
Experimental: Test A: Antiviral Assay in MT4 Cells
For the antiviral assay, 40 μL of 1× test concentration of 3-fold serially diluted compound in culture medium with 10% FBS was added to each well of a 384-well plate (10 concentrations) in quadruplicate. MT-4 cells were next mixed with HIV-IIIb at an m.o.i of 0.003 for 1 hour, after which time 35 μL of virus/cell mixture (2000 cells) was immediately added to each well containing 40 μL of diluted compound. The plates were then incubated at 37° C. for 5 days. After 5 days of incubation, 25 μl of 2× concentrated CellTiter-Glo™ Reagent (catalog #G7571, Promega Biosciences, Inc., Madison, Wis.) was added to each well containing MT-4 cells. Cell lysis was carried out by incubating at room temperature for 10 min and then chemiluminescence was read.

[1] = Test B: Cytotoxicity Assay (protocol of Test A, uninfected cells); type: cell-based; details: human, uninfected MT-4 cells, CellTiter-Glo
Experimental: as §1

Compound	CC50 (MT-4 cells)	inhibition at 3 µM (HIV-IIIb)	CC50 at 5 days [1]
CC(=O)Oc1ccc(-c2ccc(F)c(C(N)=O)c2)c([C@H](Cc2cc(F)cc(F)c2)NC(=O)Cn2nc(C(F)F)c3c2C(F)(F)CCC3(F)F)n1 [Compound 20B, (S)-5-(3-carbamoyl-4-fluorophenyl)-6-(1-(2-(3-(difluoromethyl)-4,4,7,7-tetrafluoro-4,5,6,7-tetrahydro-1H-indazol-1-yl)acetamido)-2-(3,5-difluorophenyl)ethyl)pyridin-2-yl acetate]	> 53.2 µM		
CN(C)c1cnc([C@H](Cc2cc(F)cc(F)c2)NC(=O)Cn2nc(C(F)F)c3c2C(F)(F)[C@@H]2C[C@H]32)c(-c2ccc(Cl)c3c(NS(C)(=O)=O)nn(C)c23)c1 [Compound 50, N—((S)-1-(3-(4-chloro-1-methyl-3-(methylsulfonamido)-1H-indazol-7-yl)-5-(dimethylamino)pyridin-2-yl)-2-(3,5-difluorophenyl)ethyl)-2-((3bS,4aR)-3-(difluoromethyl)-5,5-difluoro-3b,4,4a,5-tetrahydro-1H-cyclopropa[3,4]cyclopenta[1,2-c]pyrazol-1-yl)acetamide]		86%	34.2 µM
Cn1nc(NS(C)(=O)=O)c2c(Cl)ccc(-c3cc(N)cnc3[C@H](Cc3cc(F)cc(F)c3)NC(=O)Cn3nc(C(F)F)c4c3C(F)(F)[C@@H]3C[C@H]43)c21 [Compound 49C, N—((S)-1-(5-amino-3-(4-chloro-1-methyl-3-(methylsulfonamido)-1H-indazol-7-yl)pyridin-2-yl)-2-(3,5-difluorophenyl)ethyl)-2-((3bS,4aR)-3-(difluoromethyl)-5,5-difluoro-3b,4,4a,5-tetrahydro-1H-cyclopropa[3,4]cyclopenta[1,2-c]pyrazol-1-yl)acetamide]		93%	28.1 µM
Cc1nc([C@H](Cc2cc(F)cc(F)c2)NC(=O)Cn2nc(C(F)F)c3c2C(F)(F)[C@@H]2C[C@H]32)c(-c2ccc(Cl)c3c(NS(C)(=O)=O)nn(C)c23)cc1N [Compound 47C, N—((S)-1-(5-amino-3-(4-chloro-1-methyl-3-(methylsulfonamido)-1H-indazol-7-yl)-6-methylpyridin-2-yl)-2-(3,5-difluorophenyl)ethyl)-2-((3bS,4aR)-3-(difluoromethyl)-5,5-difluoro-3b,4,4a,5-tetrahydro-1H-cyclopropa[3,4]cyclopenta[1,2-c]pyrazol-1-yl)acetamide]		107%	18.1 µM
CN(CCO)c1ccc(-c2ccc(Cl)c3c(NS(C)(=O)=O)nn(C)c23)c([C@H](Cc2cc(F)cc(F)c2)NC(=O)Cn2nc(C(F)F)c3c2C(F)(F)[C@@H]2C[C@H]32)n1 [Compound 57G, N—((S)-1-(3-(4-chloro-1-methyl-3-(methylsulfonamido)-1H-indazol-7-yl)-6-((2-hydroxyethyl)(methyl)amino)pyridin-2-yl)-2-(3,5-difluorophenyl)ethyl)-2-((3bS,4aR)-3-(difluoromethyl)-5,5-difluoro-3b,4,4a,5-tetrahydro-1H-cyclopropa[3,4]cyclopenta[1,2-c]pyrazol-1-yl)acetamide]		81%	29.5 µM
Cn1nc(NS(C)(=O)=O)c2cccc(-c3nc(N)cnc3C(Cc3cc(F)cc(F)c3)NC(=O)Cn3nc(C(F)F)c4c3C(F)(F)[C@@H]3C[C@H]43)c21 (stereo partly drawn) [Compound 61, N-(1-(5-amino-3-(1-methyl-3-(methylsulfonamido)-1H-indazol-7-yl)pyrazin-2-yl)-2-(3,5-difluorophenyl)ethyl)-2-((3bS,4aR)-3-(difluoromethyl)-5,5-difluoro-3b,4,4a,5-tetrahydro-1H-cyclopropa[3,4]cyclopenta[1,2-c]pyrazol-1-yl)acetamide]		75%	> 53.2 µM
Cn1nc(NS(C)(=O)=O)c2cccc(-c3cc(N)c(C#N)nc3[C@H](Cc3cc(F)cc(F)c3)NC(=O)Cn3nc(C(F)(F)F)c4c3C(F)(F)[C@@H]3C[C@H]43)c21 [Compound 46F, N—((S)-1-(5-amino-6-cyano-3-(1-methyl-3-(methylsulfonamido)-1H-indazol-7-yl)pyridin-2-yl)-2-(3,5-difluorophenyl)ethyl)-2-((3bS,4aR)-5,5-difluoro-3-(trifluoromethyl)-3b,4,4a,5-tetrahydro-1H-cyclopropa[3,4]cyclopenta[1,2-c]pyrazol-1-yl)acetamide]		109%	12.5 µM
CNc1cnc([C@H](Cc2cc(F)cc(F)c2)NC(=O)Cn2nc(C(F)F)c3c2C(F)(F)[C@@H]2C[C@H]32)c(-c2ccc(Cl)c3c(NS(C)(=O)=O)nn(C)c23)c1 [Compound 51, N—((S)-1-(3-(4-chloro-1-methyl-3-(methylsulfonamido)-1H-indazol-7-yl)-5-(methylamino)pyridin-2-yl)-2-(3,5-difluorophenyl)ethyl)-2-((3bS,4aR)-3-(difluoromethyl)-5,5-difluoro-3b,4,4a,5-tetrahydro-1H-cyclopropa[3,4]cyclopenta[1,2-c]pyrazol-1-yl)acetamide]		79%	16.6 µM
NC(=O)c1cc(-c2cc(N)cnc2[C@H](Cc2cc(F)cc(F)c2)NC(=O)Cn2nc(C(F)F)c3c2C(F)(F)CCC3(F)F)ccc1F [Compound 33, (S)-5-(5-amino-2-(1-(2-(3-(difluoromethyl)-4,4,7,7-tetrafluoro-4,5,6,7-tetrahydro-1H-indazol-1-yl)acetamido)-2-(3,5-difluorophenyl)ethyl)pyridin-3-yl)-2-fluorobenzamide]		85%	13.3 µM
Cc1nc([C@H](Cc2cc(F)cc(F)c2)NC(=O)Cn2nc(C(F)F)c3c2C(F)(F)[C@@H]2C[C@H]32)c(-c2cccc3c(NS(C)(=O)=O)nn(C)c23)cc1N [Compound 44, N—((S)-1-(5-amino-6-methyl-3-(1-methyl-3-(methylsulfonamido)-1H-indazol-7-yl)pyridin-2-yl)-2-(3,5-difluorophenyl)ethyl)-2-((3bS,4aR)-3-(difluoromethyl)-5,5-difluoro-3b,4,4a,5-tetrahydro-1H-cyclopropa[3,4]cyclopenta[1,2-c]pyrazol-1-yl)acetamide]		107%	32 µM
CC(=O)Nc1cc(-c2ccc(Cl)c3c(NS(C)(=O)=O)nn(C)c23)c([C@H](Cc2cc(F)cc(F)c2)NC(=O)Cn2nc(C(F)F)c3c2C(F)(F)[C@@H]2C[C@H]32)nc1C [Compound 48, N—((S)-1-(5-acetamido-3-(4-chloro-1-methyl-3-(methylsulfonamido)-1H-indazol-7-yl)-6-methylpyridin-2-yl)-2-(3,5-difluorophenyl)ethyl)-2-((3bS,4aR)-3-(difluoromethyl)-5,5-difluoro-3b,4,4a,5-tetrahydro-1H-cyclopropa[3,4]cyclopenta[1,2-c]pyrazol-1-yl)acetamide]		93%	20.7 µM
